Patent publication US8362000B2, “Azetidinyl diamides as monoacylglycerol lipase inhibitors” (Janssen Pharmaceutica NV, priority 2009, dated 2013)

Target: T1, mutant MGL (Homo sapiens, UniProt Q99685, L169S/L176S)
T1 sequence (Q99685 1-303 L169S/L176S): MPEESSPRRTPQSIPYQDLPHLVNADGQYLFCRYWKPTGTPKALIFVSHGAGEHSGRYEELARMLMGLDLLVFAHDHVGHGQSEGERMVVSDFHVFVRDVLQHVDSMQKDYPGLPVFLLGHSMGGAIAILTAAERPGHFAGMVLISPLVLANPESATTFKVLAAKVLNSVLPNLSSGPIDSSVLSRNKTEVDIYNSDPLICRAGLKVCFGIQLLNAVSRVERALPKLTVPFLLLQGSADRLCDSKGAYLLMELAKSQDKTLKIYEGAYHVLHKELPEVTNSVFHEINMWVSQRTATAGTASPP
Experiment: MGL ThermoFluor assay - mutant
Assay type: binding
Settings: ThermoFluor concentration-response, read-out: MGL mutant ThermoFluor Kd

Kd | Compound
5 µM | O=C(c1ccccc1)N1CCN(C2CN(C(=O)c3cccnc3Oc3ccc(Cl)cc3)C2)CC1 [Cpd 474, 1-(1-{[2-(4-Chlorophenoxy)pyridin-3-yl]carbonyl}azetidin-3-yl)-4-(phenylcarbonyl)piperazine]
0.286 µM | O=C(c1ccc(-c2ccccc2)cc1)N1CC(N2CCN(C(=O)c3ccc(Br)s3)CC2)C1 [Cpd 15, 1-[1-(Biphenyl-4-ylcarbonyl)azetidin-3-yl]-4-[(5-bromothiophen-2-yl)carbonyl]piperazine]
0.089 µM | O=C(c1ccccc1)N1CCN(C2CN(C(=O)c3ccc(NC4CCC(F)(F)CC4)cc3)C2)CC1 [Cpd 530]
1.33 µM | O=C(c1cc(Br)cc(C(F)(F)F)c1)N1CC(N2CCN(C(=O)c3nccs3)CC2)C1 [Cpd 910]
0.0147 µM | O=C(c1ccc(CSc2cccc(Cl)c2)cc1)N1CC(N2CCN(C(=O)c3nccs3)CC2)C1 [Cpd 454]
0.0059 µM | O=C(c1ccccc1)N1CCN(C2CN(C(=O)c3ccc(C4CCCCC4)cc3)C2)CC1 [Cpd 1, 1-{1-[(4-Cyclohexylphenyl)carbonyl]azetidin-3-yl}-4-(phenylcarbonyl)-piperazine]
0.542 µM | O=C(c1ccccc1)N1CCN(C2CN(C(=O)c3cccc(CNc4ccccc4F)c3)C2)CC1 [Cpd 561]
0.1 µM | O=C(c1ccccc1)N1CCN(C2CN(C(=O)c3ccc(N4CCCC4)cc3)C2)CC1 [Cpd 29, 1-(Phenylcarbonyl)-4-{1-[(4-pyrrolidin-1-ylphenyl)carbonyl]azetidin-3-yl}piperazine]
2.73 µM | O=C(c1ccccc1)N1CCN(C2CN(C(=O)c3cccc(NCc4ccccc4)c3)C2)CC1 [Cpd 531, N-Benzyl-3-({3-[4-(phenylcarbonyl)piperazin-1-yl]azetidin-1-yl}carbonyl)aniline]
0.454 µM | Cn1cccc1C(=O)N1CCN(C2CN(C(=O)c3ccc(-c4ccccc4)cc3)C2)CC1 [Cpd 11, 1-[1-(Biphenyl-4-ylcarbonyl)azetidin-3-yl]-4-[(1-methyl-1H-pyrrol-2-yl)carbonyl]piperazine]
0.154 µM | O=C(c1ccccc1)N1CCN(C2CN(C(=O)C3CCC(c4ccccc4)CC3)C2)CC1 (stereo not shown) [Cpd 106, 1-(Phenylcarbonyl)-4-{1-[(4-phenylcyclohexyl)carbonyl]azetidin-3-yl}piperazine]
0.167 µM | O=C(c1ccccc1)N1CCN(C2CN(C(=O)c3ccc(NCc4ccccc4Cl)cc3)C2)CC1 [Cpd 492, N-(2-Chlorobenzyl)-4-({3-[4-(phenylcarbonyl)piperazin-1-yl]azetidin-1-yl}carbonyl)aniline]
0.143 µM | O=C(c1ccc(C2CCCCC2)cc1)N1CC(N2CCN(C(=O)c3ccccn3)CC2)C1 [Cpd 4, 1-{1-[(4-Cyclohexylphenyl)carbonyl]azetidin-3-yl}-4-(pyridin-2-ylcarbonyl)piperazine]
2 µM | O=C(c1ccccc1)N1CCN(C2CN(C(=O)c3ccc(SCc4cccnc4)cc3)C2)CC1 [Cpd 555]
25 µM | O=C(c1ccccc1)N1CCN(C2CN(C(=O)c3ccc4[nH]c5c(c4c3)CCCC5)C2)CC1 [Cpd 55, 6-({3-[4-(Phenylcarbonyl)piperazin-1-yl]azetidin-1-yl}carbonyl)-2,3,4,9-tetrahydro-1H-carbazole]
> 31.2 µM | O=C(c1ccc(Cc2ccccc2)cc1)N1CC(N2CCN(C(=O)c3nccs3)C(c3ccccc3)C2)C1 (stereo not shown) [Cpd 1464, 4-{1-[(4-Benzylphenyl)carbonyl]azetidin-3-yl}-2-phenyl-1-(1,3-thiazol-2-ylcarbonyl)piperazine]
0.005 µM | O=C(c1ccc(Oc2ccc(Cl)cc2)cc1)N1CC(N2CCN(C(=O)c3nccs3)CC2)C1 [Cpd 420, 1-(1-{[4-(4-Chlorophenoxy)phenyl]carbonyl}azetidin-3-yl)-4-(1,3-thiazol-2-ylcarbonyl)piperazine]
5 µM | COc1cc(C(=O)N2CC(N3CCN(C(=O)c4ccccc4)CC3)C2)ccc1Br [Cpd 24, 1-{1-[(4-Bromo-3-methoxyphenyl)carbonyl]azetidin-3-yl}-4-(phenylcarbonyl)piperazine]
> 76.7 µM | O=C(c1ccccc1)N1CCN(C2CN(C(=O)c3ccccc3C3CCNC3)C2)CC1 (stereo not shown) [Cpd 456, 1-(Phenylcarbonyl)-4-{1-[(2-pyrrolidin-3-ylphenyl)carbonyl]azetidin-3-yl}piperazine]
0.00067 µM | O=C(c1ccc(-c2cccc(Cl)c2)cc1)N1CC(N2CCN(C(=O)c3nccs3)CC2)C1 [Cpd 162, 1-{1-[(3′-Chlorobiphenyl-4-yl)carbonyl]azetidin-3-yl}-4-(1,3-thiazol-2-ylcarbonyl)piperazine]
0.111 µM | O=C(c1ccc(-c2ccccc2)cc1)N1CC(N2CCN(C(=O)c3cncs3)CC2)C1 [Cpd 8, 1-[1-(Biphenyl-4-ylcarbonyl)azetidin-3-yl]-4-(1,3-thiazol-5-ylcarbonyl)piperazine]
0.2 µM | O=C(c1ccccc1)N1CCN(C2CN(C(=O)c3ccc(Oc4ccc(Cl)cc4)cc3)C2)CC1 [Cpd 425]
5.02 µM | O=C(c1ccccc1)N1CCN(C2CN(C(=O)c3cnn(-c4ccccc4)c3C(F)(F)F)C2)CC1 [Cpd 626, 1-(Phenylcarbonyl)-4-(1-{[1-phenyl-5-(trifluoromethyl)-1H-pyrazol-4-yl]carbonyl}azetidin-3-yl)piperazine]
0.025 µM | O=C(c1ccccc1)N1CCN(C2CN(C(=O)c3ccc(NCc4ccc(Cl)c(Cl)c4)cc3)C2)CC1 [Cpd 493, N-(3,4-Dichlorobenzyl)-4-({3-[4-(phenylcarbonyl)piperazin-1-yl]azetidin-1-yl}carbonyl)aniline]
4.82 µM | O=C(c1ccccc1)N1CCN(C2CN(C(=O)c3ccc(Cc4ccccc4)cc3)C2)C(CO)C1 (stereo not shown) [Cpd 457, [1-{1-[(4-Benzylphenyl)carbonyl]azetidin-3-yl}-4-(phenylcarbonyl)piperazin-2-yl]methanol]
0.576 µM | O=C(c1ccc(OCc2ccc(Cl)s2)cc1)N1CC(N2CCN(C(=O)C(F)(F)F)CC2)C1 [Cpd 961]
0.025 µM | O=C(c1ccc(SCc2ccc(Cl)c(Cl)c2)cc1)N1CC(N2CCN(C(=O)c3nccs3)CC2)C1 [Cpd 414, 1-[1-({4-[(3,4-Dichlorobenzyl)sulfanyl]phenyl}carbonyl)azetidin-3-yl]-4-(1,3-thiazol-2-ylcarbonyl)piperazine]
0.5 µM | O=C(c1ccccc1)N1CCN(C2CN(C(=O)c3ccc(SCc4ccc(Cl)cc4)cc3)C2)CC1 [Cpd 418]
0.0833 µM | O=C(c1ccccc1)N1CCN(C2CN(C(=O)c3ccc(OCc4ccccc4)cc3)C2)CC1 [Cpd 35, 1-(1-{[4-(Benzyloxy)phenyl]carbonyl}azetidin-3-yl)-4-(phenylcarbonyl)piperazine]

Same assay, conditions: ThermoFluor thermal stability binding assay, read-out: MGL mutant ThermoFluor Kd

Kd | Compound
0.846 µM | O=C(c1ccccc1)N1CCN(C2CN(C(=O)c3ccc(OCc4ccc(S(=O)(=O)N5CCOCC5)cc4)cc3)C2)CC1 [Cpd 394]
1.99 µM | O=C(c1ccccc1)N1CCN(C2CN(C(=O)c3ccc(OCc4cncc(Cl)c4)cc3)C2)CC1 [Cpd 554]
10 µM | O=C(c1ccc(-c2ccccc2)cc1)N1CC(N2CCN(C(=O)c3cnon3)CC2)C1 [Cpd 308]
0.206 µM | O=C(c1nccs1)N1CCN(C2CN(C(=O)c3nc(-c4ccccc4)oc3C(F)(F)F)C2)CC1 [Cpd 1385]
> 31.2 µM | O=C(c1ccc(-c2ccccc2)cc1)N1CC(N2CCN(C(=O)c3ncccn3)CC2)C1 [Cpd 1478]
1.25 µM | O=C(c1nccs1)N1CCN(C2CN(C(=O)c3cccc4nc(Cc5ccccc5F)[nH]c34)C2)CC1 [Cpd 989]
0.0022 µM | O=C(c1ccc2c(c1)CCCN2c1cccc(C(F)(F)F)c1)N1CC(N2CCN(C(=O)c3nccs3)CC2)C1 [Cpd 374, 6-({3-[4-(1,3-Thiazol-2-ylcarbonyl)piperazin-1-yl]azetidin-1-yl}carbonyl)-1-[3-(trifluoromethyl)phenyl]-1,2,3,4-tetrahydroquinoline]
0.2 µM | CS(=O)(=O)c1cccc(-c2ccc(C(=O)N3CC(N4CCN(C(=O)c5cscn5)CC4)C3)cc2)c1 [Cpd 236, 1-(1-{[3′-(Methylsulfonyl)biphenyl-4-yl]carbonyl}azetidin-3-yl)-4-(1,3-thiazol-4-ylcarbonyl)piperazine]
1.32 µM | CC(=O)Nc1cccc(-c2ccc(C(=O)N3CC(N4CCN(C(=O)c5ccccc5)CC4)C3)cc2)c1 [Cpd 233, N-[4′-({3-[4-(Phenylcarbonyl)piperazin-1-yl]azetidin-1-yl}carbonyl)biphenyl-3-yl]acetamide]
0.0004 µM | COc1cc(C(=O)N2CC(N3CCN(C(=O)c4nccs4)CC3)C2)ccc1-c1cccc(C(F)(F)F)c1 [Cpd 247, 1-(1-{[2-Methoxy-3′-(trifluoromethyl)biphenyl-4-yl]carbonyl}azetidin-3-yl)-4-(1,3-thiazol-2-ylcarbonyl)piperazine]
0.0004 µM | O=C(c1nccs1)N1CCN(C2CN(C(=O)c3sc4cc(-c5ccccc5)ccc4c3Cl)C2)CC1 [Cpd 343, 1-{1-[(3-Chloro-6-phenyl-1-benzothiophen-2-yl)carbonyl]azetidin-3-3yl}-4-(1,3-thiazol-2-ylcarbonyl)piperazine]
0.0017 µM | O=C(c1ccc(OCc2ccc(Cl)c(Cl)c2)c(Cl)c1)N1CC(N2CCN(C(=O)c3nccs3)CC2)C1 [Cpd 404]
0.0033 µM | Cc1cc(C(=O)N2CC(N3CCN(C(=O)c4cscn4)CC3)C2)ccc1-c1ccc(Cl)c(C(F)(F)F)c1 [Cpd 258, 1-(1-{[4′-Chloro-2-methyl-3′-(trifluoromethyl)biphenyl-4-yl]carbonyl}azetidin-3-yl)-4-(1,3-thiazol-4-ylcarbonyl)piperazine]

Same assay, conditions: ThermoFluor, compound concentration measured by qNMR, read-out: MGL mutant ThermoFluor qKd (μM) (using qNMR conc.)

Kd | Compound
0.044 µM | Cc1cc(-n2ccc3cc(C(=O)N4CC(N5CCN(C(=O)c6cscn6)CC5)C4)ccc32)ccc1C#N [Cpd 1421, 2-Methyl-4-[5-({3-[4-(1,3-thiazol-4-ylcarbonyl)piperazin-1-yl]azetidin-1-yl}carbonyl)-1H-indol-1-yl]benzonitrile]
